# Results published in patent publication US11192865B2, “Benzosulfonyl compounds” (Vivace Therapeutics, Inc., priority 2017, dated 2021).
# Tested on: 8XTBD luciferase reporter
# Experiment: YAP Reporter Assay
# Assay type: cell-based
# Conditions: Homo sapiens, HEK-293T; HEK293T cells stably transfected with 8XTBD luciferase reporter and pRLTK; 24-hr incubation; starting from 3 μM, 1:3 dilution, 10 points; read-out: Firefly Luciferase IC50
# Description: HEK293T cells stably transfected with 8XTBD luciferase reporter and pRLTK in 384-well plates were treated with the test compounds, starting from 3 μM (final concentration in assay plate), 1:3 dilution, and 10 points in quadruplicates. Post 24-hr incubation with compounds at 37° C. and 5% CO2, cells were lysed and 8XTBD-driven firefly luciferase and control TK-driven renilla luciferase activities were measured using Promega Dual-Luciferase Reporter Assay System.
# Reagents: The reagents used for this study are: DMEM: Invitrogen #11960077, Dual-Glo Luciferase Assay System: Promega-E2980, Puromycin Dihydrochloride: Invitrogen-A1113803, 384-well plate: PerkinElmer-6007480, L-GLUTAMINE: Invitrogen-25030164, Hygromycin B: Invitrogen-10687010, and Penicillin-Streptomycin: Merk-TMS-AB2-C
# Media: The media used for this assay were: Culture Medium: DMEM+1 ug/mL puromycin+200 ug/mL hygromycin (with 10% FBS+1 mM L-glutamine); and Assay Medium: DMEM (with 10% FBS+1 mM L-glutamine+1×P/S).
# Cell Plating: The appropriate media was warmed at 37° C. by water bath: Culture Medium, Assay Medium, 1* D-PBS, 0.05% trypsin-EDTA. The cells were trypsinized after removing all media, then washed with 1* sterile D-PBS and then with 2 ml 0.05% trypsin-EDTA. The cells were then incubated at RT for one minute. Then 10 ml/75 cm2 flask Assay Medium was added to each flask. Using a 10 ml pipette, the cells were then gently resuspended in the media, until the clumps completely disappeared. The cells were then transferred into 50 ml centrifuge tubes and were centrifuged at 800 rpm for 5 mins. The medium was removed and the cells were resuspended with Assay Medium. An aliquot of cells was used to count the cell density (cells/ml). The cell suspension was then diluted with Assay Medium to a concentration of 6×10^4 cells/ml. 50 ul cells suspension was then plated to 384-well plate (PerkinElmer-6007480), 3×10^3 cells/well and the cells were incubated in an incubator at 37° C., 5% CO2.
# Compound Treatment: In the afternoon (incubation of the plate with 3-4 hrs), the test compounds were added by Echo, starting from 3 uM (final concentration in the assay plate), 1:3 dilution, 10 points, quadruplicates. The plate was placed at 37° C., 5% CO2 incubator for 24 hrs.
# Detection: The Dual-Glo Luciferase Reagent was prepared by transferring the contents of one bottle of Dual-Glo Luciferase Buffer to one bottle of Dual-Glo Luciferase Substrate to create the Dual-Glo Luciferase Reagent. Mixing was performed by inversion until the substrate was thoroughly dissolved. After mixing, the reagent was aliquoted into 15 ml tubes. In the afternoon (24 hrs post compound treatment), the DMEM+ medium in the 384 well plates were aspirated by Microplate Washer.
# Measuring firefly luciferase activity: 20 ul Dual-Glo Luciferase Reagent was added to the 384-well plates. The plates were protected from light to prevent interference with the assay. The plates were shaken for 1 min followed centrifuging plates at 1000 rpm for 30 seconds. After waiting at least 10 minutes, the firefly luminescence was measured by Envision.
# Measuring renilla luciferase activity: 20 ul Stop-Glo Reagent was added to the 384-well plates. The plates were shaken for 1 min and then centrifuged at 1000 rpm for 30 seconds. After waiting at least 10 minutes, the renilla luminescence was measured by Envision.
# Compound IC50 and maximum inhibition on the firefly luciferase and renilla luciferase activities were reported separately.
row,SMILES,IC50 [nM]
1,"CNS(=O)(=O)c1ccc(NC2CCCCC2)c(-c2nnn(C3CCN(c4cccnc4)CC3)n2)c1 [Compound 33, 4-(cyclohexylamino)-N-methyl-3-(2-(1-(pyridin-3-yl)piperidin-4-yl)-2H-tetrazol-5-yl)benzenesulfonamide]",100 to 1000
2,"CNS(=O)(=O)c1ccc(NC2CCCCC2)c(-c2nnn(-c3ccccc3)n2)c1 [Compound 34, 4-(cyclohexylamino)-N-methyl-3-(2-phenyl-2H-tetrazol-5-yl)benzenesulfonamide]",> 3000
3,"CNS(=O)(=O)c1ccc(NC2CCCCC2)c(-c2nnn(C3CCN(c4ccccc4)C3)n2)c1 (centres unmarked) [Compound 37, 4-(cyclohexylamino)-N-methyl-3-(2-(1-phenylpyrrolidin-3-yl)-2H-tetrazol-5-yl)benzenesulfonamide]",> 3000
4,"CNS(=O)(=O)c1ccc(NC2CCCCC2)c(-c2nnn(C3CCN(c4ccccc4)CC3)n2)c1 [Compound 38, 4-(cyclohexylamino)-N-methyl-3-(2-(1-phenylpiperidin-4-yl)-2H-tetrazol-5-yl)benzenesulfonamide]",> 3000
5,"CNS(=O)(=O)c1ccc(NC2CCCCC2)c(-c2nnn(CC(F)(F)F)n2)c1 [Compound 39, 4-(cyclohexylamino)-N-methyl-3-(2-(2,2,2-trifluoroethyl)-2H-tetrazol-5-yl)benzenesulfonamide]",100 to 1000
6,"CNS(=O)(=O)c1ccc(NC2CCCCC2)c(-c2nnn(CCF)n2)c1 [Compound 40, 4-(cyclohexylamino)-3-(2-(2-fluoroethyl)-2H-tetrazol-5-yl)-N-methylbenzenesulfonamide]",≤ 100
7,"CNS(=O)(=O)c1ccc(NC2CCCCC2)c(-c2nnn(Cc3ccc(F)cc3)n2)c1 [Compound 41, 4-(cyclohexylamino)-3-(2-(4-fluorobenzyl)-2H-tetrazol-5-yl)-N-methylbenzenesulfonamide]",100 to 1000
8,"CNS(=O)(=O)c1ccc(NC2CCCCC2)c(-c2nnn(CCO)n2)c1 [Compound 44, 4-(cyclohexylamino)-3-(2-(2-hydroxyethyl)-2H-tetrazol-5-yl)-N-methylbenzenesulfonamide]",100 to 1000
9,"CNS(=O)(=O)c1ccc(NC2CCCCC2)c(-c2nnn(-c3cccnc3)n2)c1 [Compound 45, 4-(cyclohexylamino)-N-methyl-3-(2-(pyridin-3-yl)-2H-tetrazol-5-yl)benzenesulfonamide]",≤ 100
10,"CNS(=O)(=O)c1ccc(NC2CCCCC2)c(-c2noc(C)n2)c1 [Compound 48, 4-(cyclohexylamino)-N-methyl-3-(5-methyl-1,2,4-oxadiazol-3-yl)benzene sulfonamide]",≤ 100
11,"CNS(=O)(=O)c1ccc(NC2CCCCC2)c(-c2nnn(C3CN(c4ccccc4)C3)n2)c1 [Compound 51, 4-(cyclohexylamino)-N-methyl-3-(2-(1-phenylazetidin-3-yl)-2H-tetrazol-5-yl)benzenesulfonamide]",> 3000
12,"CNS(=O)(=O)c1ccc(NC2CCCCC2)c(-c2nnn(C3CN(C(C)C)C3)n2)c1 [Compound 52, 4-(cyclohexylamino)-3-(2-(1-isopropylazetidin-3-yl)-2H-tetrazol-5-yl)-N-methylbenzenesulfonamide]",100 to 1000
13,"CNS(=O)(=O)c1ccc(NC2CCCCC2)c(-c2cncnc2)c1 [Compound 55, 4-(cyclohexylamino)-N-methyl-3-(pyrimidin-5-yl)benzenesulfonamide]",> 3000
14,"CNS(=O)(=O)c1ccc(NC2CCCCC2)c(-c2ncccn2)c1 [Compound 56, 4-(cyclohexylamino)-N-methyl-3-(pyrimidin-2-yl)benzenesulfonamide]",≤ 100
15,"CNS(=O)(=O)c1ccc(NC2CCCCC2)c(-c2ccn(C)n2)c1 [Compound 57, 4-(cyclohexylamino)-N-methyl-3-(1-methyl-1H-pyrazol-3-yl)benzenesulfonamide]",≤ 100
16,"CNS(=O)(=O)c1ccc(NC2CCCCC2)c(-c2cn(C)nn2)c1 [Compound 58, 4-(cyclohexylamino)-N-methyl-3-(1-methyl-1H-1,2,3-triazol-4-yl)benzenesulfonamide]",≤ 100
17,"CNS(=O)(=O)c1ccc(NC2CCCCC2)c(-c2nnn(C3CCCN(C(=O)OC(C)(C)C)C3)n2)c1 (centres unmarked) [Compound 59, tert-butyl 3-(5-(2-(cyclohexylamino)-5-(N-methylsulfamoyl)phenyl)-2H-tetrazol-2-yl)piperidine-1-carboxylate]",100 to 1000
18,"CNS(=O)(=O)c1ccc(NC2CCCCC2)c(-c2nnnn2C2CCCN(C(=O)OC(C)(C)C)C2)c1 (centres unmarked) [Compound 60, tert-butyl 3-(5-(2-(cyclohexylamino)-5-(N-methylsulfamoyl)phenyl)-1H-tetrazol-1-yl)piperidine-1-carboxylate]",> 3000

# More lines, now with the values ahead:
row,IC50 [nM],SMILES
1,> 3000,"CNS(=O)(=O)c1ccc(NC2CCCCC2)c(-c2nnn(C3CCN(S(C)(=O)=O)CC3)n2)c1 [Compound 32, 4-(cyclohexylamino)-N-methyl-3-(2-(1-(methylsulfonyl)piperidin-4-yl)-2H-tetrazol-5-yl)benzenesulfonamide]"
2,> 3000,"CNS(=O)(=O)c1ccc(NC2CCCCC2)c(-c2nnn(C3CCNC3)n2)c1 (centres unmarked) [Compound 35, 4-(cyclohexylamino)-N-methyl-3-(2-(pyrrolidin-3-yl)-2H-tetrazol-5-yl)benzenesulfonamide]"
3,1000 to 3000,"CNS(=O)(=O)c1ccc(NC2CCCCC2)c(-c2nnn(C3CCN(C(C)C)C3)n2)c1 (centres unmarked) [Compound 36, 4-(cyclohexylamino)-3-(2-(1-isopropylpyrrolidin-3-yl)-2H-tetrazol-5-yl)-N-methylbenzenesulfonamide]"
4,100 to 1000,"CNS(=O)(=O)c1ccc(NC2CCCCC2)c(-c2nnn(C3CCN(C(C)=O)C3)n2)c1 (centres unmarked) [Compound 42, 3-(2-(1-acetylpyrrolidin-3-yl)-2H-tetrazol-5-yl)-4-(cyclohexylamino)-N-methylbenzenesulfonamide]"
5,> 3000,"CNS(=O)(=O)c1ccc(NC2CCCCC2)c(-c2nnn(C3CCN(S(C)(=O)=O)C3)n2)c1 (centres unmarked) [Compound 43, 4-(cyclohexylamino)-N-methyl-3-(2-(1-(methylsulfonyl)pyrrolidin-3-yl)-2H-tetrazol-5-yl)benzenesulfonamide]"
6,> 3000,"CNS(=O)(=O)c1ccc(NC2CCCCC2)c(-c2nnn(C3CCN(C(C)C)CC3)n2)c1 [Compound 46, 4-(cyclohexylamino)-3-(2-(1-isopropylpiperidin-4-yl)-2H-tetrazol-5-yl)-N-methylbenzenesulfonamide]"
7,> 3000,"CNS(=O)(=O)c1ccc(NC2CCCCC2)c(-c2nnn(C3CCN(C(=O)OC(C)C)CC3)n2)c1 [Compound 47, isopropyl 4-(5-(2-(cyclohexylamino)-5-(N-methylsulfamoyl)phenyl)-2H-tetrazol-2-yl)piperidine-1-carboxylate]"
8,100 to 1000,"CNS(=O)(=O)c1ccc(NC2CCCCC2)c(-c2nnn(C3CN(C(C)=O)C3)n2)c1 [Compound 49, 3-(2-(1-acetylazetidin-3-yl)-2H-tetrazol-5-yl)-4-(cyclohexylamino)-N-methylbenzenesulfonamide]"
9,> 3000,"CNS(=O)(=O)c1ccc(NC2CCCCC2)c(-c2nnn(C3CN(S(C)(=O)=O)C3)n2)c1 [Compound 50, 4-(cyclohexylamino)-N-methyl-3-(2-(1-(methylsulfonyl)azetidin-3-yl)-2H-tetrazol-5-yl)benzenesulfonamide]"
10,100 to 1000,"CNS(=O)(=O)c1ccc(NC2CCCCC2)c(-c2nnn(C3CCCN(C(C)=O)C3)n2)c1 (centres unmarked) [Compound 53, 3-(2-(1-acetylpiperidin-3-yl)-2H-tetrazol-5-yl)-4-(cyclohexylamino)-N-methylbenzenesulfonamide]"
11,> 3000,"CNS(=O)(=O)c1ccc(NC2CCCCC2)c(-c2nnn(C3CNC3)n2)c1 [Compound 54, 3-(2-(azetidin-3-yl)-2H-tetrazol-5-yl)-4-(cyclohexylamino)-N-methylbenzenesulfonamide]"
